Measurements from patent publication US4870097A, “Pharmaceutical use of derivatives of tryptophan” (priority 1984, dated 1989).
“Also recorded” adds a separate entry of the source.

Tests used:
[1] = system: tolerance induced by morphine; test: Antagonism to the development of tolerance to repeated administration of morphine HCl (tail flick); format: in vivo, rats
Description: Several of the compounds of the invention were examined to determine any capacity to antagonise the development of tolerance induced by morphine. Groups of six male rats having a weight of about 200-250 were used.
At intervals of 24 hours from the first treatment (time 0), each animal (except for the control group treated with a physiological solution) received 3 mg/kg of morphine hydrochloride i.p. together with 3 mg/kg i.p. of the compounds indicated (with the exception of the group treated solely with morphine).
The determination of the threshold for the pain stimulus was effected at 15°, 30', 45' and 60' intervals from the treatment by the "tail flick" test.

[2] = system: guinea pig gall bladder contracted with CCK-8; test: Anti-CCK activity on guinea pig gall bladders in vitro; format: biochemical; details: CCK-8 10 ng/ml, concentration antagonising 50% of contracting effect
Method in brief: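 Longitudinal gall bladder strips in Krebs at 32° C, gassed with O2/CO2 95:5, were contracted with CCK-8 at 10 ng/ml and contractions recorded isometrically via force transducer. ED50 in mcg/ml is the compound concentration antagonising 50% of CCK contraction, derived by regression over at least three experiments.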

[3] = system: analgesic activity of morphine; test: Tail Flick Test: increase in the analgesic effect of morphine; format: in vivo, rats
Method in brief: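 Male non-fasted rats, 150-200 g; heat source (75 °C) on tail, latency to tail movement timed, 8 s cut-off. Measured before and 10, 20, 30, 45, 60, 90 min after analgesic dosing; percentage variation per animal, averaged over groups of five.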

[4] = system: activity of analgesic drugs; test: Hot plate test: potentiation of analgesic drugs; format: in vivo, rats
Description: The method is that described by Eddy et al. (J. Pharmac. Exp. Ther. 107, 385 (1953)).
Groups of five male rats having a weight of about 150 g and which have not been fasting are used.
The animals are placed on a metal plate which is on the bottom of a transparent cylinder heated to 55°±1° C. by an azeotropic boiling mixture (1:1 acetone-ethyl formate). The time which passes between the moment at which the animal is placed on the hot plate and the moment at which it licks its feet or tries to jump out of the cylinder is defined as the reaction time. The control reaction time is measured 10 and 5 minutes before the administration of the drugs and 10, 20, 30, 45, 60, 90 minutes afterwards. The animals are left on the plate for a maximum period of 30 seconds.
The response to the administration of the product is considered positive if at least a doubling of the normal reaction time is seen. The results obtained are given in Table 2 which records the groups treated, the dose administered and the stay times on the plate expressed as the number of positive responses over the number treated.

endogenous opiates = test: Tail Flick Test after transcutaneous shock: analgesic activity of endogenous opiates; format: in vivo, rats; details: for Average latency, 5': 5' after electric shock; for Average latency, 10': 10' after electric shock; for Average latency, 15': 15' after electric shock
Description: Influence of several of the compounds of the invention on the analgesic activity of endogenous opiates released under transcutaneous shock in rats measured by the Tail Flick Test
The method is that described by Lewis et al. (J. Neurosc. 1, 358 (1981). Male rats having a weight of about 200 g, which have not been fasting, are used.
The animals are stressed by the application to the front leg of a 60 Hz-2.5 mA current in pulses of a duration of one second every five seconds for 20 minutes.
This stress regime causes the release of endogenous opiates.

[5] = days 0-7, 3 mg/kg + morphine (row Morphine: alone)
[6] = acetylsalicylic acid 100 + C. 26 5 mg/kg i.p.
[7] = acetylsalicylic acid 100 + C. 26 10 mg/kg i.p.
[8] = acetylsalicylic acid 100 + C. 26 20 mg/kg i.p.
[9] = propoxyphene 15 + C. 26 1 mg/kg i.p.
[10] = propoxyphene 15 + C. 26 2.5 mg/kg i.p.
[11] = propoxyphene 15 + C. 26 5.0 mg/kg i.p.

CCCCCCc1ccc(C(=O)N[C@@H](Cc2c[nH]c3ccccc23)C(=O)O)cc1 [Compound 26]
percentage variation in the latency time, day 0 ([1]; day 0, 3 mg/kg i.p. + morphine HCl 3 mg/kg i.p. (row Morphine: alone)): 74.14%
percentage variation in the latency time, day 1 ([1]; day 1, 3 mg/kg i.p. + morphine HCl 3 mg/kg i.p. (row Morphine: alone)): 45.73%
percentage variation in the latency time, day 2 ([1]; day 2, 3 mg/kg i.p. + morphine HCl 3 mg/kg i.p. (row Morphine: alone)): 59.5%
percentage variation in the latency time, day 3 ([1]; day 3, 3 mg/kg i.p. + morphine HCl 3 mg/kg i.p. (row Morphine: alone)): 51.52%
percentage variation in the latency time, day 4 ([1]; day 4, 3 mg/kg i.p. + morphine HCl 3 mg/kg i.p. (row Morphine: alone)): 43.40%
percentage variation in the latency time, day 5 ([1]; day 5, 3 mg/kg i.p. + morphine HCl 3 mg/kg i.p. (row Morphine: alone)): 37.60%
percentage variation in the latency time, day 6 ([1]; day 6, 3 mg/kg i.p. + morphine HCl 3 mg/kg i.p. (row Morphine: alone)): 21.43%
percentage variation in the latency time, day 7 ([1]; day 7, 3 mg/kg i.p. + morphine HCl 3 mg/kg i.p. (row Morphine: alone)): 29.75%
Area subtended (1) [1, 5]: 366.7 Effect-Day
regression line % Effect versus Day [1, 5]: % Effect = - 6.02 Day + 66.5
Area 1 / Area Morphine ([1]; days 0-7, 3 mg/kg + morphine, ratio to morphine alone): 2.61
Anti CCK-8 activity, ED50 [2]: 152.1 µg/mL
percentage variation in the latency of the pain sensation, 10' ([3]; 10', compound 10 mg/kg i.p. + morphine 2 mg/kg (row Morphine: alone), ± S.E.): 100.0 ± 0.0%
percentage variation in the latency of the pain sensation, 20' ([3]; 20', compound 10 mg/kg i.p. + morphine 2 mg/kg (row Morphine: alone), ± S.E.): 87.6 ± 9.2%
percentage variation in the latency of the pain sensation, 30' ([3]; 30', compound 10 mg/kg i.p. + morphine 2 mg/kg (row Morphine: alone), ± S.E.): 100.0 ± 0.0%
percentage variation in the latency of the pain sensation, 45' ([3]; 45', compound 10 mg/kg i.p. + morphine 2 mg/kg (row Morphine: alone), ± S.E.): 100.0 ± 0.0%
percentage variation in the latency of the pain sensation, 60' ([3]; 60', compound 10 mg/kg i.p. + morphine 2 mg/kg (row Morphine: alone), ± S.E.): 100.0 ± 0.0%
percentage variation in the latency of the pain sensation, 90' ([3]; 90', compound 10 mg/kg i.p. + morphine 2 mg/kg (row Morphine: alone), ± S.E.): 84.5 ± 9.8%
M(10'-90') average percentage variation ([3]; mean 10'-90', compound 10 mg/kg i.p. + morphine 2 mg/kg (row Morphine: alone)): 96.3%
Potency ratio relative to morphine alone ([3]; rat, in vivo): 3.2
Positive Total X/25 [4, 6]: 15
positive responses over the number treated, 10' [4, 6]: 3/5
positive responses over the number treated, 20' [4, 6]: 2/5
positive responses over the number treated, 30' [4, 6]: 4/5
positive responses over the number treated, 45' [4, 6]: 4/5
positive responses over the number treated, 60' [4, 6]: 2/5
Positive Total X/25 [4, 7]: 21
positive responses over the number treated, 10' [4, 7]: 5/5
positive responses over the number treated, 20' [4, 7]: 4/5
positive responses over the number treated, 30' [4, 7]: 5/5
positive responses over the number treated, 45' [4, 7]: 4/5
positive responses over the number treated, 60' [4, 7]: 3/5
Positive Total X/25 [4, 8]: 23
positive responses over the number treated, 10' [4, 8]: 4/5
positive responses over the number treated, 20' [4, 8]: 5/5
positive responses over the number treated, 30' [4, 8]: 5/5
positive responses over the number treated, 45' [4, 8]: 5/5
positive responses over the number treated, 60' [4, 8]: 4/5
Positive Total X/25 [4, 9]: 15
positive responses over the number treated, 10' [4, 9]: 2/5
positive responses over the number treated, 20' [4, 9]: 3/5
positive responses over the number treated, 30' [4, 9]: 4/5
positive responses over the number treated, 45' [4, 9]: 3/5
positive responses over the number treated, 60' [4, 9]: 3/5
Positive Total X/25 [4, 10]: 20
positive responses over the number treated, 10' [4, 10]: 3/5
positive responses over the number treated, 20' [4, 10]: 5/5
positive responses over the number treated, 30' [4, 10]: 5/5
positive responses over the number treated, 45' [4, 10]: 4/5
positive responses over the number treated, 60' [4, 10]: 3/5
Positive Total X/25 [4, 11]: 24
positive responses over the number treated, 10' [4, 11]: 4/5
positive responses over the number treated, 20' [4, 11]: 5/5
positive responses over the number treated, 30' [4, 11]: 5/5
positive responses over the number treated, 45' [4, 11]: 5/5
positive responses over the number treated, 60' [4, 11]: 5/5
analgesic activity of propoxyphene (in words) ([4]; with propoxyphene, 2.5 mg/kg i.p. (double), 5 mg/kg i.p. (maximum effect)): at least double the analgesic activity of propoxyphene; also recorded: a maximum effect
Average latency, 5' (endogenous opiates; 0.5 mg/kg i.v. + stress): 6.62 ± 0.72 s
Average latency, 5' (endogenous opiates; 2 mg/kg i.v. + stress): 11.0 ± 0.65 s
Average latency, 10' (endogenous opiates; 0.5 mg/kg i.v. + stress): 6.1 ± 0.61 sec.
Average latency, 10' (endogenous opiates; 2 mg/kg i.v. + stress): 9.28 ± 0.78 sec.
Average latency, 15' (endogenous opiates; 0.5 mg/kg i.v. + stress): 5.52 ± 0.9 s
Average latency, 15' (endogenous opiates; 2 mg/kg i.v. + stress): 6.84 ± 0.73 s
